Results taken from patent publication US9968592B2, “Dyslipidemia therapeutic agent” (KOWA COMPANY, LTD., priority 2014, dated 2018).

Tested on: Male hamsters (Slc:Syrian)
Experiment: Effect on LDL-C of hamster, oral administration once per day for two weeks
Type: in vivo
Settings: single administration, vs control (Dunnett)
Text: Male hamsters (6-week-old, Slc:Syrian, Japan SLC, Inc.) were used for an experiment. Blood was collected from the jugular vein under satiation. The hamsters were divided into six groups (N=8) based on TG and TC in plasma and a body weight. For two weeks from the next day, each of a solvent (0.5% methylcellulose aqueous solution: MC), compound A alone, compound B alone, and combination of compound A and compound B was orally administered once per day. For comparison, for two weeks, each of compound C alone and combination of compound A and compound C was orally administered once per day. On the final day of administration of the pharmaceutical agent, blood was collected under fasting conditions for four hours and under isoflurane anesthesia, and LDL-C in plasma was measured using high performance liquid chromatography by a method of Usui et • a1. (Usui S et al. Clin Chem., 46, 63-72, 2000).
Group 2: 0.3 mg/kg of compound A
Group 3: 10 mg/kg of compound B
Group 4: 0.3 mg/kg of compound A and 10 mg/kg of compound B
Group 5: 10 mg/kg of compound C
Group 6: 0.3 mg/kg of compound A and 10 mg/kg of compound C
Results were presented by an average value±standard deviation. Comparison between the control group and each of the pharmaceutical agent administration groups was performed by a multiple comparison test of Dunnett, and a risk rate of less than 5% was determined to have a significant difference.

[1] = 10 mg/kg orally once per day for two weeks

Row | SMILES | LDL-C in plasma (0.3 mg/kg orally once per day for two weeks) | LDL-C in plasma [1]
1 | CC[C@@H](Oc1cccc(CN(CCCOc2ccc(OC)cc2)c2nc3ccccc3o2)c1)C(=O)O [compound A, (R)-2-[3-[[N-(benzoxazol-2-yl)-N-3-(4-methoxyphenoxy)propyl]aminomethyl]phenoxy]butyric acid] | a clear influence on LDL-C was not observed | –
2 | CCN(C[C@H]1CC[C@H](CC(=O)O)CC1)c1ccc(C(F)(F)F)cc1CN(c1ncc(OCCS(C)(=O)=O)cn1)[C@@H](C)c1cc(C(F)(F)F)cc(C(F)(F)F)c1 [compound B, (S)-trans-{4-[({2-[({1-[3,5-bis(trifluoromethyl)phenyl]ethyl}{5-[2-(methylsulfonyl)ethoxy]pyrimidin-2-yl}amino)methyl]-4-(trifluoromethyl)phenyl}(ethyl)amino)methyl]cyclohexyl} acetic acid] | – | a clear influence on LDL-C was not observed
3 | COc1cc(F)c(C(C)C)cc1-c1ccc(C(F)(F)F)cc1CN1C(=O)O[C@H](c2cc(C(F)(F)F)cc(C(F)(F)F)c2)[C@@H]1C [compound C, [4S,5R]-5-[3,5-bis(trifluoromethyl)phenyl]-3-{[4′-fluoro-2′-methoxy-5′-(propan-2-yl)-4-(trifluoromethyl)[1,1′-biphenyl]-2-yl]methyl}-4-methyl-1,3-oxazolidin-2-one, reference compound] | – | a clear influence on LDL-C was not observed
